Assay results: ChEMBL document CHEMBL1151047, “NS 257 (1,2,3,6,7,8-hexahydro-3(hydroxyimino)-N,N,7-trimethyl-2-oxobenzo[2,1-b:3,4-c']dipyrrole-5-sulfonamide) is a potent, systemically active ampa receptor antagonist” (Bioorg Med Chem Lett, 1994)

Columns and labels:
Mus musculus = test: Ability to block the AMPA-induced convulsant effects in mice upon intracerebroventricular injection; assay type: functional; conditions: central
[1] = target: Glutamate receptor ionotropic, NMDA 1 (Rattus norvegicus, UniProt P35439); test: Binding affinity towards glycine binding site of NMDA receptor to rat cortical membrane using [3H]glycine as radioligand
Glutamate NMDA receptor = test: Binding affinity towards glutamate binding site of NMDA receptor to rat cortical membrane using NMDA sensitive [3H]-glutamate as radioligand
[2] = target: Glutamate receptor ionotropic, kainate; test: Binding affinity towards kainate receptor to rat cortical membrane using [3H]kainate as radioligand
[3] = Compound was tested for neuronal damage produced by application of 500 uM kainate; assay type: functional
[4] = Inhibitory activity against lactate dehydrogenase release was determined; assay type: functional
[5] = target: Glutamate receptor ionotropic, AMPA (Rattus norvegicus, UniProt P19490+P19491+P19492+P19493); test: Binding affinity towards AMPA receptor to rat cortical membrane using [3H]AMPA as radioligand

| SMILES | ED50 (Mus musculus) [mg/kg] | IC50 [1] [µM] | IC50 (Glutamate NMDA receptor) [µM] | IC50 [2] [µM] | IC50 [3] [µM] | IC50 [4] [µM] | IC50 [5] [µM] |
| --- | --- | --- | --- | --- | --- | --- | --- |
| NS(=O)(=O)c1cccc2c1c([N+](=O)[O-])cc1nc(O)c(O)nc12 [NBQX] | 10 | – | – | – | – | – | – |
| CN1Cc2c(S(=O)(=O)N(C)C)cc3c(N=O)c(O)[nH]c3c2C1 | 10 | > 100 | 44 | 13 | 10 | 9 | 0.7 |
